{
  "source": "patent US8124793B2",
  "about": "“Derivatives of ethylene methanedisulfonate as cancer chemotherapeutic agents” (priority 2007, dated 2012)",
  "assay_type_in_all_cases": "cell-based",
  "key": {"CCRF-CEM": {"tested_on": "CCRF-CEM", "assay": "NCI screen, growth of human tumor cells: Leukemia CCRF-CEM", "conditions": "CCRF-CEM", "outline": "(§1)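 The NCI screen tests each compound on human cancer cell lines and reports percent growth. Concentrations are given in molar units; the number of data points per compound is sixty at minimum.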"}, "RPMI-8226": {"tested_on": "RPMI-8226", "assay": "NCI screen, growth of human tumor cells: Leukemia RPMI-8226", "outline": "as §1"}, "SR": {"tested_on": "SR", "assay": "NCI screen, growth of human tumor cells: Leukemia SR", "conditions": "SR", "outline": "as §1"}, "AS49/ATCC": {"tested_on": "AS49/ATCC", "assay": "NCI screen, growth of human tumor cells: Non-Small Cell Lung AS49/ATCC", "conditions": "A549/ATCC, 10^−4 molar", "outline": "as §1"}, "EKVX": {"tested_on": "EKVX", "assay": "NCI screen, growth of human tumor cells: Non-Small Cell Lung EKVX", "conditions": "EKVX, 10^−4 molar", "outline": "as §1"}, "HOP-62": {"tested_on": "HOP-62", "assay": "NCI screen, growth of human tumor cells: Non-Small Cell Lung HOP-62", "conditions": "HOP-62, 10^−4 molar", "outline": "as §1"}, "NCI-H226": {"tested_on": "NCI-H226", "assay": "NCI screen, growth of human tumor cells: Non-Small Cell Lung NCI-H226", "outline": "as §1"}, "NCI-H23": {"tested_on": "NCI-H23", "assay": "NCI screen, growth of human tumor cells: Non-Small Cell Lung NCI-H23", "outline": "as §1"}, "COLO205": {"tested_on": "COLO205", "assay": "NCI screen, growth of human tumor cells: Colon Cancer COLO205", "outline": "as §1"}, "HCT-116": {"tested_on": "HCT-116", "assay": "NCI screen, growth of human tumor cells: Colon Cancer HCT-116", "outline": "as §1"}, "HCT-15": {"tested_on": "HCT-15", "assay": "NCI screen, growth of human tumor cells: Colon Cancer HCT-15", "conditions": "HCT-15 (Colon Cancer), 10^−4 molar", "outline": "as §1"}, "HT29": {"tested_on": "HT29", "assay": "NCI screen, growth of human tumor cells: Colon Cancer HT29", "outline": "as §1"}, "KM12": {"tested_on": "KM12", "assay": "NCI screen, growth of human tumor cells: Colon Cancer KM12", "conditions": "KM12, 10^−4 molar", "outline": "as §1"}, "SF-295": {"tested_on": "SF-295", "assay": "NCI screen, growth of human tumor cells: CNS Cancer SF-295", "conditions": "SF-295, 10^−4 molar", "outline": "as §1"}, "SNB-19": {"tested_on": "SNB-19", "assay": "NCI screen, growth of human tumor cells: CNS Cancer SNB-19", "conditions": "SNB-19, 10^−4 molar", "outline": "as §1"}, "LOXIMVI": {"tested_on": "LOXIMVI", "assay": "NCI screen, growth of human tumor cells: Melanoma LOXIMVI", "conditions": "LOXIMVI", "outline": "as §1"}, "MALME-3M": {"tested_on": "MALME-3M", "assay": "NCI screen, growth of human tumor cells: Melanoma MALME-3M", "conditions": "MALME-3M, 10^−4 molar", "outline": "as §1"}, "SK-MEL-2": {"tested_on": "SK-MEL-2", "assay": "NCI screen, growth of human tumor cells: Melanoma SK-MEL-2", "conditions": "SK-MEL-2 (Melanoma), 10^−4 molar", "outline": "as §1"}, "SK-MEL-5": {"tested_on": "SK-MEL-5", "assay": "NCI screen, growth of human tumor cells: Melanoma SK-MEL-5", "conditions": "SK-MEL-5, 10^−4 molar", "outline": "as §1"}, "OVCAR-3": {"tested_on": "OVCAR-3", "assay": "NCI screen, growth of human tumor cells: Ovarian Cancer OVCAR-3", "conditions": "OVCAR-3, 10^−4 molar", "outline": "as §1"}, "OVCAR-4": {"tested_on": "OVCAR-4", "assay": "NCI screen, growth of human tumor cells: Ovarian Cancer OVCAR-4", "conditions": "OVCAR-4, 10^−4 molar", "outline": "as §1"}, "OVCAR-5": {"tested_on": "OVCAR-5", "assay": "NCI screen, growth of human tumor cells: Ovarian Cancer OVCAR-5", "conditions": "OVCAR-5, 10^−4 molar", "outline": "as §1"}, "OVCAR-8": {"tested_on": "OVCAR-8", "assay": "NCI screen, growth of human tumor cells: Ovarian Cancer OVCAR-8", "conditions": "OVCAR-8 (Ovarian Cancer), 10^−4 molar", "outline": "as §1"}, "TK-10": {"tested_on": "TK-10", "assay": "NCI screen, growth of human tumor cells: Renal Cancer TK-10", "conditions": "TK-10, 10^−4 molar", "outline": "as §1"}, "SN12C": {"tested_on": "SN12C", "assay": "NCI screen, growth of human tumor cells: Renal Cancer SN12C", "conditions": "SN12C, 10^−4 molar", "outline": "as §1"}, "CAKI-1": {"tested_on": "CAKI-1", "assay": "NCI screen, growth of human tumor cells: Renal Cancer CAKI-1", "conditions": "CAKI-1, 10^−4 molar", "outline": "as §1"}, "UO-31": {"tested_on": "UO-31", "assay": "NCI screen, growth of human tumor cells: Renal Cancer UO-31", "conditions": "UO-31, 10^−4 molar", "outline": "as §1"}, "DU-145": {"tested_on": "DU-145", "assay": "NCI screen, growth of human tumor cells: Prostate Cancer DU-145", "conditions": "DV-145, 10^−4 molar", "outline": "as §1"}, "MCF 7": {"tested_on": "MCF 7", "assay": "NCI screen, growth of human tumor cells: Breast Cancer MCF 7", "outline": "as §1"}, "MCF7/ADR-RES": {"tested_on": "MCF7/ADR-RES", "assay": "NCI screen, growth of human tumor cells: Breast Cancer MCF7/ADR-RES", "conditions": "MCF7/ADR-RES (Breast Cancer), 10^−4 molar", "outline": "as §1"}, "BT-549": {"tested_on": "BT-549", "assay": "NCI screen, growth of human tumor cells: Breast Cancer BT-549", "outline": "as §1"}},
  "data": [
    {"smiles": "Cc1ccc2ccccc2c1CC1S(=O)(=O)OCCOS1(=O)=O", "note": "[NSC 679043, ethylene 2-methyl-1-naphyl-1,1-ethanedisulfonate]", "values": [
      {"measurement": "% Growth", "setting": "CCRF-CEM; 10^−4 molar", "value": "−49", "unit": "%"},
      {"measurement": "% Growth", "setting": "CCRF-CEM; 10^−5 molar", "value": 37, "unit": "%"},
      {"measurement": "% Growth", "setting": "RPMI-8226; RPMI-8226, 10^−4 molar", "value": "−54", "unit": "%"},
      {"measurement": "% Growth", "setting": "RPMI-8226; RPMI-8226, 10^−5 molar", "value": 56, "unit": "%"},
      {"measurement": "% Growth", "setting": "SR; 10^−4 molar", "value": "−63", "unit": "%"},
      {"measurement": "% Growth", "setting": "SR; 10^−5 molar", "value": 42, "unit": "%"},
      {"measurement": "% Growth", "setting": "AS49/ATCC", "value": "−77", "unit": "%"},
      {"measurement": "% Growth", "setting": "EKVX", "value": "−98", "unit": "%"},
      {"measurement": "% Growth", "setting": "HOP-62", "value": "−77", "unit": "%"},
      {"measurement": "% Growth", "setting": "NCI-H226; NCI-H226, 10^−4 molar", "value": "−63", "unit": "%"},
      {"measurement": "% Growth", "setting": "NCI-H226; NCI-H226, 10^−5 molar", "value": 49, "unit": "%"},
      {"measurement": "% Growth", "setting": "NCI-H23; NCI-H23, 10^−4 molar", "value": "−48", "unit": "%"},
      {"measurement": "% Growth", "setting": "NCI-H23; NCI-H23, 10^−5 molar", "value": 75, "unit": "%"},
      {"measurement": "% Growth", "setting": "COLO205; COLO205, 10^−4 molar", "value": "−98", "unit": "%"},
      {"measurement": "% Growth", "setting": "COLO205; COLO205, 10^−5 molar", "value": "−27", "unit": "%"},
      {"measurement": "% Growth", "setting": "HCT-116; HCT-116, 10^−4 molar", "value": "−99", "unit": "%"},
      {"measurement": "% Growth", "setting": "HCT-116; HCT-116, 10^−5 molar", "value": 15, "unit": "%"},
      {"measurement": "percent of growth of human tumor cells", "setting": "HCT-15", "value": "−49", "unit": "%"},
      {"measurement": "% Growth", "setting": "HT29; HT-29, 10^−4 molar", "value": "−95", "unit": "%"},
      {"measurement": "% Growth", "setting": "HT29; HT-29, 10^−5 molar", "value": 57, "unit": "%"},
      {"measurement": "% Growth", "setting": "KM12", "value": "−69", "unit": "%"},
      {"measurement": "% Growth", "setting": "SF-295", "value": "−88", "unit": "%"},
      {"measurement": "% Growth", "setting": "SNB-19", "value": "−95", "unit": "%"},
      {"measurement": "% Growth", "setting": "LOXIMVI; 10^−4 molar", "value": "−84", "unit": "%"},
      {"measurement": "% Growth", "setting": "LOXIMVI; 10^−5 molar", "value": 45, "unit": "%"},
      {"measurement": "% Growth", "setting": "MALME-3M", "value": "−88", "unit": "%"},
      {"measurement": "percent of growth of human tumor cells", "setting": "SK-MEL-2", "value": "−59", "unit": "%"},
      {"measurement": "% Growth", "setting": "SK-MEL-5", "value": "−91", "unit": "%"},
      {"measurement": "% Growth", "setting": "OVCAR-3", "value": "−100", "unit": "%"},
      {"measurement": "% Growth", "setting": "OVCAR-4", "value": "−97", "unit": "%"},
      {"measurement": "% Growth", "setting": "OVCAR-5", "value": "−98", "unit": "%"},
      {"measurement": "percent of growth of human tumor cells", "setting": "OVCAR-8", "value": "−53", "unit": "%"},
      {"measurement": "% Growth", "setting": "TK-10", "value": "−93", "unit": "%"},
      {"measurement": "% Growth", "setting": "SN12C", "value": "−85", "unit": "%"},
      {"measurement": "% Growth", "setting": "CAKI-1", "value": "−100", "unit": "%"},
      {"measurement": "% Growth", "setting": "UO-31", "value": "−100", "unit": "%"},
      {"measurement": "% Growth", "setting": "DU-145", "value": "−100", "unit": "%"},
      {"measurement": "% Growth", "setting": "MCF 7; MCF7, 10^−4 molar", "value": "−78", "unit": "%"},
      {"measurement": "% Growth", "setting": "MCF 7; MCF7, 10^−5 molar", "value": 45, "unit": "%"},
      {"measurement": "percent of growth of human tumor cells", "setting": "MCF7/ADR-RES", "value": "−12", "unit": "%"},
      {"measurement": "% Growth", "setting": "BT-549; BT-549, 10^−4 molar", "value": "−82", "unit": "%"},
      {"measurement": "% Growth", "setting": "BT-549; BT-549, 10^−5 molar", "value": 57, "unit": "%"}
    ]}
  ]
}
